Values after ≈ are worked out from the molar mass of the structure shown.
tested on: M. tuberculosis H37Rv growth inhibition; experiment: Mycobacterium tuberculosis H37Rv growth inhibition, putative kinase inhibitor library, confirmatory dose response (AID 2842);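 note: bacteria incubated one week before Alamar blue readout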

First: Cc1ccc(-c2nnc(NC(=O)Cc3ccccc3)o2)c(C)c1
Second: Cc1ccc(-c2nnc(NC(=O)c3nc4ccccc4s3)o2)c(C)c1
The IC90 of the first is 8.4-fold higher: 14.8 µg/mL (≈ 48.1 µM) for the first, 1.76 µg/mL (≈ 5.02 µM) for the second.

COC(=O)C(C)Oc1ccc2cc(-c3ccc(OC)cc3)c(=O)oc2c1 (stereo not drawn) and COc1ccc(OC)c(NC(=O)c2cc3cc(Cl)ccc3oc2=O)c1 are within 1.5-fold of each other in IC90: 1.07 µg/mL (≈ 3.02 µM) for the first, 0.77 µg/mL (≈ 2.14 µM) for the second.

Compared with CCOC(=O)N1CCc2c(sc(NC(=O)CCOc3ccccc3)c2C(N)=O)C1, NC(=O)c1c(NC(=O)c2ccc([N+](=O)[O-])o2)sc2c1CCCCC2 is 24-fold lower in IC90: 12.4 µg/mL (≈ 29.7 µM) for the first, 0.52 µg/mL (≈ 1.49 µM) for the second.

CCS(=O)(=O)c1cccc(C(=O)Nc2nnc(-c3ccc4c(c3)CCCC4)o2)c1 and O=C(Nc1nnc(-c2ccccc2)o1)c1ccc2c(c1)CCCC2 are within 1.5-fold of each other in IC90: 16.3 µg/mL (≈ 39.7 µM) for the first, 15.5 µg/mL (≈ 48.7 µM) for the second.

Compared with COc1ccc(-c2nc(N3CCC(C)CC3)nc3n[nH]c(N)c23)cc1, COc1ccc2nc(N3CCCC3)sc2c1 is 3.9-fold higher in IC90: 2.14 µg/mL (≈ 6.32 µM) for the first, 8.36 µg/mL (≈ 35.7 µM) for the second.

Compared with COC(=O)c1c(NC(=O)c2ccccc2I)sc2c1CC(C)(C)NC2(C)C, CC1(C)Cc2c(sc(NC(=O)c3ccc(Oc4ccccc4)cc3)c2C(N)=O)C(C)(C)N1 is 2.1-fold lower in IC90: 13.2 µg/mL (≈ 26.6 µM) for the first, 6.22 µg/mL (≈ 13.8 µM) for the second.

O=C(Nc1ccc(I)cc1)c1ccc([N+](=O)[O-])s1 and O=C(Nc1nnc(-c2ccc(F)cc2)o1)c1ccc(Br)s1 cannot be ordered by IC90: less than 0.2 µg/mL for the first, less than 0.2 µg/mL for the second.

Compared with Cc1ccccc1C(=O)Nc1nnc(-c2ccc(Cl)cc2)o1, N#Cc1ccc(C(=O)Nc2nnc(-c3ccc(Br)cc3)o2)cc1 is 13-fold higher in IC90: 0.55 µg/mL (≈ 1.75 µM) for the first, 7.39 µg/mL (≈ 20 µM) for the second.

COc1cc(C=NNC(=O)Nc2cccc(Cl)c2)ccc1O and CSc1nc2cc(NC(=S)NC(=O)c3ccccc3)ccc2s1 are within 1.5-fold of each other in IC90: 8.5 µg/mL (≈ 26.6 µM) for the first, 6.89 µg/mL (≈ 19.2 µM) for the second.

Compared with CCCC(=O)Nc1nnc(-c2ccccc2)o1, O=C(Nc1nnc(-c2ccccc2)o1)c1cc(-c2cccs2)nc2ccccc12 is 31-fold lower in IC90: 22 µg/mL (≈ 95.2 µM) for the first, 0.72 µg/mL (≈ 1.81 µM) for the second.

Going from COc1ccc2nc(Nc3nc4c(F)cccc4s3)sc2c1 to CCOc1ccc2nc(Nc3nc4ccc(NC(C)=O)cc4s3)sc2c1, the IC90 falls from 23.4 µg/mL (≈ 70.8 µM) to 7.84 µg/mL (≈ 20.4 µM) (3-fold).

First: O=C(OCc1nc2ccccc2s1)c1ccc(C(=O)c2ccccc2)cc1
Second: CCN1CCc2c(sc(NC(=O)c3ccccc3)c2-c2nc3ccccc3s2)C1
The IC90 of the first is 24-fold higher: 17.3 µg/mL (≈ 46.2 µM) for the first, 0.73 µg/mL (≈ 1.74 µM) for the second.

First: CCSc1ccc(C(=O)Nc2nnc(-c3ccco3)o2)cc1
Second: O=C(Nc1nnc(-c2ccco2)o1)c1ccc2c(c1)OCCO2
The IC90 of the first is 16-fold lower: 0.71 µg/mL (≈ 2.25 µM) for the first, 11.6 µg/mL (≈ 37.1 µM) for the second.

OCCOCCNc1nc(Nc2cccc(F)c2)nc2c1cnn2-c1ccccc1 and Clc1cccc(N2CCN(c3nc(Nc4ccccc4)c4nccnc4n3)CC2)c1 are within 1.5-fold of each other in IC90: 4.91 µg/mL (≈ 12 µM) for the first, 4.58 µg/mL (≈ 11 µM) for the second.

Going from COc1ccc(NC(=O)CCCN2C(=O)/C(=C\c3ccco3)SC2=S)cc1 to CCOC(=O)CNC(=O)CSc1ncnc2c1nnn2-c1ccc(OC)cc1, the IC90 rises from 3.3 µg/mL (≈ 8.2 µM) to 6.79 µg/mL (≈ 16.9 µM) (2.1-fold).

O=C(Nc1nnc(-c2ccco2)o1)C1CCCCC1 and O=C(Nc1nnc(C2=COCCO2)o1)c1cc(Cl)cc(Cl)c1 are within 1.5-fold of each other in IC90: 50.4 µg/mL (≈ 193 µM) for the first, 53.7 µg/mL (≈ 157 µM) for the second.

COc1ccc(C)c2sc(N(CCCn3ccnc3)C(=O)c3cccs3)nc12 and COc1ccc(Cl)c2sc(N(CCCn3ccnc3)C(=O)c3cccs3)nc12 are within 1.5-fold of each other in IC90: 2.4 µg/mL (≈ 5.82 µM) for the first, 1.72 µg/mL (≈ 3.97 µM) for the second.

Compared with COc1ccc(CC(=O)N2CCN=C2SCc2ccc(C(F)(F)F)cc2)cc1, COc1cccc2sc(N(CCCn3ccnc3)C(=O)Cc3ccc(F)cc3)nc12 is 6.9-fold lower in IC90: 23.9 µg/mL (≈ 58.4 µM) for the first, 3.48 µg/mL (≈ 8.2 µM) for the second.

Compared with Cc1ccc(C)c2sc(N(CCCn3ccnc3)C(=O)c3ccc(F)cc3)nc12, Cc1cc(C)c2nc(N(CCCn3ccnc3)C(=O)c3cccs3)sc2c1 is 3-fold lower in IC90: 4.35 µg/mL (≈ 10.6 µM) for the first, 1.45 µg/mL (≈ 3.66 µM) for the second.

First: CCOC(=O)c1csc(Nc2nc3c(SC)cccc3s2)n1
Second: Cc1ccc(-c2csc(Nc3nc4cc5c(cc4s3)OCO5)n2)o1
The IC90 of the first is 8.5-fold lower: 3.13 µg/mL (≈ 8.91 µM) for the first, 26.6 µg/mL (≈ 74.5 µM) for the second.

Compared with Cc1ccc2nc(N(CCCn3ccnc3)C(=O)c3ccco3)sc2c1, O=C(Cc1ccccc1)N(CCCn1ccnc1)c1nc2c(F)cccc2s1 is 15-fold higher in IC90: 0.48 µg/mL (≈ 1.31 µM) for the first, 7.4 µg/mL (≈ 18.8 µM) for the second.

O=C(N=Nc1c(O)[nH]c2ccccc12)c1cc(-c2cccc(OCc3ccccc3)c2)n[nH]1 and COc1ccc(C(=O)Oc2cccc(Nc3ncnc4ccccc34)c2)cc1 are within 1.5-fold of each other in IC90: 20.2 µg/mL (≈ 46.2 µM) for the first, 15.1 µg/mL (≈ 40.5 µM) for the second.

Compared with Cc1ccc(-c2nnc(SCC(=O)Nc3cc(C)on3)o2)cc1, Cc1cc(NC(=O)NCCCSc2nc3ccccc3o2)no1 is 7.4-fold higher in IC90: 3.95 µg/mL (≈ 12 µM) for the first, 29.1 µg/mL (≈ 87.5 µM) for the second.

Going from Cc1ccc(Cn2c(N3CCN(Cc4cccc5ccccc45)CC3)nc3c2c(=O)[nH]c(=O)n3C)cc1 to COc1ccccc1Cn1cc2c(-c3ccc(F)cc3)nnc-2c2cc(C)ccc21, the IC90 rises from 25.4 µg/mL (≈ 51.3 µM) to 49.2 µg/mL (≈ 124 µM) (1.9-fold).

Going from COc1ccc2nc(Nc3sc4c(c3C(N)=O)CCC(C)C4)sc2c1 (stereo not drawn) to Cc1cc(C)c2nc(NNC(=O)c3ccc(N(C)C)cc3)sc2c1, the IC90 falls from 27.8 µg/mL (≈ 74.5 µM) to 3.23 µg/mL (≈ 9.49 µM) (8.6-fold).

Going from O=C(Nc1nc(-c2ccc3c(c2)OCCO3)cs1)c1cccc(C(F)(F)F)c1 to Cc1ccc(-c2nnc(NC(=O)c3cc4ccccc4oc3=O)o2)c(C)c1, the IC90 falls from 13.9 µg/mL (≈ 34.3 µM) to 1.36 µg/mL (≈ 3.76 µM) (10-fold).

Going from Cc1cc(C)c2sc(N3CCCC3)nc2c1 to CCOC(=O)c1ccc(-n2cc(O)c(C(=O)OCC)n2)cc1, the IC90 rises from 1.75 µg/mL (≈ 7.53 µM) to 20 µg/mL (≈ 65.7 µM) (11-fold).

First: C=CCn1c(=NC(=O)c2ccc([N+](=O)[O-])s2)sc2cc(S(N)(=O)=O)ccc21
Second: N#Cc1ccc(C(=O)Nc2nnc(-c3cccnc3)o2)cc1
The IC90 of the first is lower: less than 0.2 µg/mL for the first, 53.3 µg/mL (≈ 183 µM) for the second.

COc1cc(OC)cc(C(=O)Nc2nnc(-c3cccc(SC)c3)o2)c1 and COc1ccc(-c2nnc3c4cc(OC)c(OC)cc4n(Cc4ccccc4)cc2-3)cc1 are within 1.5-fold of each other in IC90: 12.4 µg/mL (≈ 33.5 µM) for the first, 11 µg/mL (≈ 25.8 µM) for the second.
